From US20190055576A1, “USE OF HERBICIDE-TOLERANT PROTEIN” (BEIJING DABEINONG TECHNOLOGY GROUP CO., LTD., priority 2016, published 2019)

Tested on: wild-type soybean plants (CK1)
Test: Sulfometuron-methyl tolerance of wild-type soybean plants, damage degree
Type: in vivo
Details: 120 g ai/ha
Source text: The herbicide tolerance effects of Gm cytoplasmic ALT-1-01 soybean plants, Gm chloroplastic ALT-1-01 soybean plants, Gm cytoplasmic ALT-2-01 soybean plants, Gm chloroplastic ALT-2-01 soybean plants, Gm cytoplasmic ALT-3-01 soybean plants, Gm chloroplastic ALT-3-01 soybean plants and wild-type soybean plants on Sulfometuron-methyl were detected (at seedling stage), respectively.
Gm cytoplasmic ALT-1-01 soybean plants, Gm chloroplastic ALT-1-01 soybean plants, Gm cytoplasmic ALT-2-01 soybean plants, Gm chloroplastic ALT-2-01 soybean plants, Gm cytoplasmic ALT-3-01 soybean plants, Gm chloroplastic ALT-3-01 soybean plants and wild-type soybean plants were respectively taken and sprayed with Sulfometuron-methyl (120 g ai/ha, 4-fold field concentration) and a blank solvent (water). The damage degree caused by the herbicide was measured for each plant according to the leaf curl degree and the growth point damage degree 3 days after spraying (3 DAT), 7 days after spraying (7 DAT), 14 days after spraying (14 DAT) and 21 days after spraying (21 DAT), respectively: considering conditions of leaves being flat as the untreated plants and growth points being intact as having a damage degree of 0%; considering conditions of veins being locally browned, new leaves being malformed and plant growth being slow as having a damage degree of 50%; and considering conditions of veins being purple to whole plant being dead and growth points being browned and dry as having a damage degree of 100%. There were 2 strains in Gm cytoplasmic ALT-1-01 soybean plants in total (S1 and S2), 2 strains in Gm chloroplastic ALT-1-01 soybean plants in total (S3 and S4), 2 strains in Gm cytoplasmic ALT-2-01 soybean plants in total (S5 and S6), 2 strains in Gm chloroplastic ALT-2-01 soybean plants in total (S7 and S8), 2 strains in Gm cytoplasmic ALT-3-01 soybean plants in total (S9 and S10), 2 strains in Gm chloroplastic ALT-3-01 soybean plants in total (S11 and S12), and 1 strain in wild-type soybean plants (CK1) in total; and 10-15 plants were selected from each strain and tested.

SMILES: COC(=O)c1ccccc1S(=O)(=O)NC(=O)Nc1nc(C)cc(C)n1 [Sulfometuron-methyl, 2-(4,6-dimethylpyrimidine-2-amino-formamido-sulfonyl) methyl benzoate]
- Average damage % 3DAT (CK1 (wild-type soybean), 4-fold field concentration, 3 days after spraying): 49%
- Average damage % 7DAT (CK1 (wild-type soybean), 4-fold field concentration, 7 days after spraying): 87%
- Average damage % 14DAT (CK1 (wild-type soybean), 4-fold field concentration, 14 days after spraying): 100%
- Average damage % 21DAT (CK1 (wild-type soybean), 4-fold field concentration, 21 days after spraying): 100%
- herbicide tolerance of wild-type plants (wild-type soybean plants): not tolerant
